Key:
α4β2 V287L nAChR [1] = target: T1, α4β2 V287L nAChR (Mus musculus, UniProt O70174+Q9ERK7, V287L)
Method: (§1) In the experimental procedures illustrated in the present disclosure N2a cells were cultured at 37° C. in 95% air, 5% CO2 in medium composed of 44.5% DMEM, 44.5% OptiMEM1, 5% FBS, 100 I.U./ml penicillin and 100 μg/ml streptomycin. For all experiments, cells were plated onto poly-d-lysine coated 35 mm culture dishes with 14 mm glass bottoms. Transfections were performed using a modification of the manufacturer's Lipofectamine and Plus reagent protocol, resulting in non-saturated expression levels of nAChRs (Imoukhuede et al., 2009; Moss et al., 2009; Son et al., 2009). Nicotine at 1 μM final concentration was added to the appropriate dishes (nicotine was replenished with each media change).
(§2) N2a cells were visualized at room temperature in extracellular buffer, 48 h after transfection. A series of lambda stack X-Y images were collected with the Eclipse C1si laser scanning confocal microscope according to procedures exemplified in Example 5. Dequenching of CFP fluorescence during incremental photobleaching of YFP was performed and analyzed as previously described (Nashmi et al., 2003; Drenan et al., 2008). FRET efficiency (E) was calculated according to (Equation 1).
(§3) IDA represents the normalized fluorescence intensity of the donor (100%) in the presence of non-bleached acceptor. ID represents the normalized fluorescence intensity of the donor following 100% photobleach of the acceptor. The ID value was extrapolated from a scatter plot of the percentage increase of donor intensity versus the percentage decrease of acceptor intensity for each cell (Nashmi et al., 2003).
(§4) A series of experiments were carried out with WT nAChR and ADFLE mutated nAChR were performed using image acquisition by FRET acceptor photobleach to detect nAChR stoichiometry before and after contact with nicotine.

WT α4β2 nAChRs = WT α4β2 nAChRs (Mus musculus, UniProt O70174+Q9ERK7)
Method: as §1, §2, §3, §4

α4β2 nAChRs [2] = target: T2, α4β2 nAChRs (Mus musculus, UniProt O70174+Q9ERK7)
Method: (§5) Live cells are imaged using the Eclipse C1si laser scanning confocal microscope. Full emission spectra images are acquired in 5 nm bins between 450 nm and 610 nm, linearly unmixed using reference spectra from samples expressing solely the donor- or acceptor-tagged fusion constructs to unambiguously separate the donor and acceptor signal from each pixel of the spectral images. Transfections of cells expressing only the donor- or acceptor-tagged fusion protein are performed for every imaging session to control for pixel saturation and spectral bleedthrough (SBT). Where appropriate, non-fluorescent subunit cDNAs are included in the transfection to ensure the faithful expression and subcellular localization of the single fluorescent species. Control samples expressing only the donor-fused constructs are imaged with the appropriate laser line and unmixed with acceptor and donor emission spectra. The unmixed acceptor images are termed the FRETd channel, and the fluorescence intensity of each pixel is termed (IFRETd). The donor fluorophore images are the “Donor” channel and pixel intensities are described by Idonor. A montage of all the FRETd channel images and a second montage of all the Donor channel images are assembled and compiled into an image stack called the “Donor SBT stack” in the order FRETd channel, Donor channel.
(§6) Two spectral images of each cell expressing only the acceptor-fused constructs are acquired, the first excited by the donor specific laser line and the second with the acceptor specific laser line. The acceptor fluorophore signal is unmixed from each image.

ADNFLE α4β2 receptors = test system: ADNFLE α4β2 receptors
Method: The data on comparative stoichiometry from acceptor photobleach FRET, pixel-based FRET, and FIR measurements obtained from the experiments exemplified in the above examples and in the related figures can be summarized. In particular data gathered for the various subunit transfection ratios, various mutants, and various labeling strategies were analyzed by the relation in FIG. 3D or by Equations 13 and 14, as appropriate.
The effects of nicotine can also be summarized; in each case, the experiment compared incubation vs. saline.

α4β2 nAChRs [3] = target: T2, α4β2 nAChRs; details: α4:β2 cDNA ratio 1:1, exposed to nicotine, N2a cells
Method: as §1

α4β2 receptors = α4β2 receptors (Mus musculus, UniProt O70174+Q9ERK7)
Description: Cells were transfected with membrane-targeted mCherry, α4GFP, and unlabeled β2. Left panels, mCherry; middle panels, α4GFP; right panels, overlay. […] Scale bars, 5 μm.
All results from microscopy analysis will be correlated to receptor function using whole cell electrophysiology.

α4β2 nAChRs [4] = target: α4β2 nAChRs (Homo sapiens, UniProt P17787+P43681); details: α4:β2 cDNA ratio 1:1, nicotine; Nelson et al., 2003; cited from earlier work
α4 S248F β2 nAChR = α4 S248F β2 nAChR (Mus musculus, UniProt O70174+Q9ERK7, S282F); details: α4 subunits carrying S248F and XFP, nicotine 1 μM, 48 h
Description: (§7) Live cells were imaged using the Eclipse C1si laser scanning confocal microscope according to procedures exemplified in Example 5. Full emission spectra images are acquired in 5 nm bins between 450 nm and 610 nm, linearly unmixed using reference spectra from samples expressing solely the donor- or acceptor-tagged fusion constructs to unambiguously separate the donor and acceptor signal from each pixel of the spectral images.
as §5, §6

α4β2 V287L nAChR [5] = target: T1, α4β2 V287L nAChR; details: 1 μM nicotine for 48 h
Description: as §7, §5, §6

T1 sequence (O70174 31-629): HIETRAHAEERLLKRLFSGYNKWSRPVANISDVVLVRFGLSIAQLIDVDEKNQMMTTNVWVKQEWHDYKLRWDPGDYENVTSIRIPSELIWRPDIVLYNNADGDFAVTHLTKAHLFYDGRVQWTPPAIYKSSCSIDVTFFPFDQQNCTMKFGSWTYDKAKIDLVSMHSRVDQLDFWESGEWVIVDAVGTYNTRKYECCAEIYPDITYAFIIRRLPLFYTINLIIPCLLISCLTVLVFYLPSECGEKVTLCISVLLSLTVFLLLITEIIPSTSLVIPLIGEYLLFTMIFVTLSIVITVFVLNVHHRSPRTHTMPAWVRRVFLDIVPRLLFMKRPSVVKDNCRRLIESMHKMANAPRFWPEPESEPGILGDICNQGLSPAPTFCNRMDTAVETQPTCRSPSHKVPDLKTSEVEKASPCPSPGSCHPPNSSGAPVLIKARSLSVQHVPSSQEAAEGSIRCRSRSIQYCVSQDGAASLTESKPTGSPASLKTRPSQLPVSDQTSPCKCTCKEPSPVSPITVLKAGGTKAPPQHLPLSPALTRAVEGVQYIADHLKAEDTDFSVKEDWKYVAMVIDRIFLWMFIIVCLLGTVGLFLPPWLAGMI
T1 sequence (Q9ERK7 26-501 V287L): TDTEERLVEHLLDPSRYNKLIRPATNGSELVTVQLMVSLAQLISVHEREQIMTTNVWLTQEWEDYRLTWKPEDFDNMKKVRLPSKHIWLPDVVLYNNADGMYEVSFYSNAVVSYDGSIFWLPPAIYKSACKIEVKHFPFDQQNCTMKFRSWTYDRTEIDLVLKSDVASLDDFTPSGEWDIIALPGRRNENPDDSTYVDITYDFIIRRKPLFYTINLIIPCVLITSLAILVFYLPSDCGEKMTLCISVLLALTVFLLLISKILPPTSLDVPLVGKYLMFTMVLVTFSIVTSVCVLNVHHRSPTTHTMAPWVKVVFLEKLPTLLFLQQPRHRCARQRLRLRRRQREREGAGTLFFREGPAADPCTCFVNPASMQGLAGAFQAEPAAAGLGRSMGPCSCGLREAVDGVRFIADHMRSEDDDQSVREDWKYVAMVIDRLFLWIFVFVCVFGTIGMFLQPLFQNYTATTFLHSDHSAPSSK
T2 sequence (O70174 31-629): as the sequence (O70174 31-629) above
T2 sequence (Q9ERK7 26-501): as the sequence (Q9ERK7 26-501 V287L) above, with L262V counted along it
Chain of WT α4β2 nAChRs (O70174 31-629): as the sequence (O70174 31-629) above
Chain of WT α4β2 nAChRs (Q9ERK7 26-501): as the sequence (Q9ERK7 26-501 V287L) above, with L262V counted along it
Chain of α4β2 receptors (O70174 31-629): as the sequence (O70174 31-629) above
Chain of α4β2 receptors (Q9ERK7 26-501): as the sequence (Q9ERK7 26-501 V287L) above, with L262V counted along it
Chain of α4β2 nAChRs (Homo sapiens, UniProt P17787+P43681) (P43681 29-627 limits assumed): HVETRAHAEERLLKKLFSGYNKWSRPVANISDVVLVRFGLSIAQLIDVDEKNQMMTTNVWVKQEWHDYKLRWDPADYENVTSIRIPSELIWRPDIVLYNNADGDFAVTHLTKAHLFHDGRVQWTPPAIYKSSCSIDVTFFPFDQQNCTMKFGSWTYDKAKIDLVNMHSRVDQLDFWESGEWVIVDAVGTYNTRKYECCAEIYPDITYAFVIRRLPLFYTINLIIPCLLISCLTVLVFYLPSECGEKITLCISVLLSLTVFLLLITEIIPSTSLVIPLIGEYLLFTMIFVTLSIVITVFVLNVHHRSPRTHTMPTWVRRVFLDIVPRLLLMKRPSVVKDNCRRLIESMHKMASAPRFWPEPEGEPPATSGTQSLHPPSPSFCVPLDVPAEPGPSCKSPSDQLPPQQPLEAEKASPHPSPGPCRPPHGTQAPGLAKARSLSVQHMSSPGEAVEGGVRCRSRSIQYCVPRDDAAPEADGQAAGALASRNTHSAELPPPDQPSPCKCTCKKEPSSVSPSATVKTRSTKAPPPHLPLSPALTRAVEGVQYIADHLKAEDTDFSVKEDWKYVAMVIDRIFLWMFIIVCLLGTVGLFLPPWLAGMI
Chain of α4β2 nAChRs (Homo sapiens, UniProt P17787+P43681) (P17787 26-502): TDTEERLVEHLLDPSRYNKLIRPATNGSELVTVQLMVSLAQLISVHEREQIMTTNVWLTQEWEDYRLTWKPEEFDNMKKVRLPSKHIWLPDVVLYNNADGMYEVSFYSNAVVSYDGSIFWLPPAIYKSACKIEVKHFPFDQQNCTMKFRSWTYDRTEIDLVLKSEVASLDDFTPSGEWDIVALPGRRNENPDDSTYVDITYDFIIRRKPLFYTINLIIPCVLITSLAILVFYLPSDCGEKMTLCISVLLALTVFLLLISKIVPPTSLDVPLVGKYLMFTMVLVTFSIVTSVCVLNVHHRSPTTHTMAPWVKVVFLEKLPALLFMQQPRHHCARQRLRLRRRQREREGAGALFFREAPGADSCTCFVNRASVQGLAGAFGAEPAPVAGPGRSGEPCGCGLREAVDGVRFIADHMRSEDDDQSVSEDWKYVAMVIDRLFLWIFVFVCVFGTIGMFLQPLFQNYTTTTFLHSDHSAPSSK
Chain of α4 S248F β2 nAChR (O70174 31-629 S282F): as the sequence (O70174 31-629) above, with S252F counted along it
Chain of α4 S248F β2 nAChR (Q9ERK7 26-501): as the sequence (Q9ERK7 26-501 V287L) above, with L262V counted along it

## CN1CCCC1c1cccnc1 (centres unmarked) [Nicotine, nicotine]
α4β2 V287L nAChR [1]; cells transfected with α4XFP β2 V287L
  FRET efficiency of nicotine-treated versus unexposed cells: lower FRET efficiency
α4β2 V287L nAChR [1]; cells transfected with α4 and β2 V287L XFP subunits
  FRET efficiency after incubation in nicotine compared to control cells: significantly higher
α4β2 V287L nAChR [1]; β2 V287L ADNFLE mutation
  Shift in stoichiometry in the presence of nicotine: shift in stoichiometry towards (α4)2(β2)3
WT α4β2 nAChRs; 1:1 cDNA α4XFP:β2 or α4:β2XFP, nicotine 1 μM
  Shift of WT receptor stoichiometry on incubation in nicotine: shifts the receptor population toward the (α4)2(β2)3 stoichiometry
WT α4β2 nAChRs; α4:β2 cDNA ratio 1:1, exposed to nicotine, N2a cells
  Percent of (α4)3(β2)2 for WT nAChRs, FRET: 61 ± 6%
α4β2 nAChRs [2]; trans-Golgi ROI (GalT-CFP), 1 μM nicotine, 4 h post-exposure
  Receptor population in the Golgi: pure (α4)2(β2)3 receptor population
α4β2 nAChRs [2]; whole cell NFRET
  Duration of the stoichiometry switch post nicotine exposure: at least 24 h
α4β2 nAChRs [2]; whole cell NFRET distribution, 4 h exposure to a saturating dose (1 μM) of nicotine
  Receptor population expressing the high-sensitivity (α4)2(β2)3 stoichiometry: 80%
ADNFLE α4β2 receptors; at least five experiments
  Percentage of (α4)3(β2)2 ADNFLE receptors after nicotine incubation relative to saline incubation: 0.8
ADNFLE α4β2 receptors; each of at least five experiments
  Ratio nicotine/saline of percentage of (α4)3(β2)2 ADNFLE receptors, all cases: < 1
α4β2 nAChRs [3]
  Percent of (α4)3(β2)2 for WT nAChRs, FIR: 73%
α4β2 receptors; 4 h of 1 μM nicotine exposure
  Upregulation at the plasma membrane by TIRFM: sufficient to cause upregulation at the plasma membrane
α4β2 receptors; incubation for 48 h in nicotine, α4GFP plus unlabeled β2
  α4GFP fluorescence in TIRF images: much brighter
α4β2 nAChRs [4]
  Percent of (α4)3(β2)2 for WT nAChRs, Reported: 68 ± 5%
α4 S248F β2 nAChR
  Shift of receptor population stoichiometry: shifted the population toward the (α4)2(β2)3 stoichiometry
α4β2 V287L nAChR [5]; α4XFP plus β2V287L
  α4 intersubunit FRET efficiency: completely back to WT levels
α4β2 V287L nAChR [5]; α4 plus β2(V287L)XFP
  Mean β2 intersubunit FRET efficiency: increased to a level even higher than the control cells

Reference: US8642352B2, “Methods and systems for detection of stoichiometry by Förster resonance energy transfer” (California Institute of Technology, priority 2009, dated 2014)
